Target: T1, RORc ligand binding domain (Homo sapiens, UniProt P51449)
T1 construct: host or cells: E. coli
T1 sequence (P51449 269-508 limits assumed): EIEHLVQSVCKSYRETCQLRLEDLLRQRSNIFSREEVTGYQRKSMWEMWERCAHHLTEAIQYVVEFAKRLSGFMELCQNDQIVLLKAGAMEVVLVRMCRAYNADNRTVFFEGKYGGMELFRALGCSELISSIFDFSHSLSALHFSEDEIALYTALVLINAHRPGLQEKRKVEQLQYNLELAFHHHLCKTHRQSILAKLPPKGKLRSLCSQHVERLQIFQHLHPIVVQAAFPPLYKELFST
Experiment: In vitro RORc ligand binding assay (25-[3H]hydroxycholesterol displacement, filter binding)

CC1(C)[C@H]2CC[C@]1(OC(=O)N1CCC1)c1nnc(-c3c(F)cccc3F)cc12 [Compound 10, (5S,8R)-3-(2,6-difluorophenyl)-9,9-dimethyl-5,6,7,8-tetrahydro-5,8-methanocinnolin-8-yl azetidine-1-carboxylate] and C[C@H](O[C@@]12CC[C@@H](c3cc(-c4c(F)cccc4F)nnc31)C2(C)C)C(N)=O [Compound 43, (S)-2-(((5S,8R)-3-(2,6-difluorophenyl)-9,9-dimethyl-5,6,7,8-tetrahydro-5,8-methanocinnolin-8-yl)oxy)propanamide] are within 1.5-fold of each other in IC50: 353 nM for the first, 300 nM for the second.

First: Cc1n[nH]c(N2CCO[C@@H]([C@@]34CC[C@@H](c5cc(-c6c(F)cccc6F)nnc53)C4(C)C)C2)n1 (single isomer, unassigned) [Compound 147, 2-[5-(2,6-difluorophenyl)-11,11-dimethyl-3,4-diazatricyclo[6.2.1.02,7]undeca-2,4,6-trien-1-yl]-4-(3-methyl-1H-1,2,4-triazol-5-yl)morpholine]
Second: Cc1noc(N2CCO[C@H]([C@@]34CC[C@@H](c5cc(-c6c(F)cccc6F)nnc53)C4(C)C)C2)n1 [Compound 84, (R)-2-((5R,8R)-3-(2,6-difluorophenyl)-9,9-dimethyl-5,6,7,8-tetrahydro-5,8-methanocinnolin-8-yl)-4-(3-methyl-1,2,4-oxadiazol-5-yl)morpholine]
The IC50 of the first is 17-fold lower: 16 nM for the first, 277 nM for the second. The first is the more potent here.

First: CC[C@@H](O[C@@]12CC[C@@H](c3cc(-c4c(F)cccc4F)nnc31)C2(C)C)C(=O)NCC1(O)COC1 [Compound 57, (R)-2-(((5S,8R)-3-(2,6-difluorophenyl)-9,9-dimethyl-5,6,7,8-tetrahydro-5,8-methanocinnolin-8-yl)oxy)-N-((3-hydroxyoxetan-3-yl)methyl)butanamide]
Second: CCNC(=O)[C@@H](CC)O[C@@]12CC[C@@H](c3cc(-c4c(F)cccc4F)nnc31)C2(C)C [Compound 22, (R)-2-(((5S,8R)-3-(2,6-difluorophenyl)-9,9-dimethyl-5,6,7,8-tetrahydro-5,8-methanocinnolin-8-yl)oxy)-N-ethylbutanamide]
The IC50 of the first is 23-fold lower: 44.5 nM for the first, 1010 nM for the second. The first is the more potent here.

Going from CC1(C)C2CCC1(C1CCCN(C(=O)c3cnoc3)C1)c1nnc(-c3c(F)cccc3F)cc12 (stereo not shown) [Compound 160, [3-[5-(2,6-difluorophenyl)-11,11-dimethyl-3,4-diazatricyclo[6.2.1.02,7]undeca-2,4,6-trien-1-yl]-1-piperidyl]-isoxazol-4-yl-methanone] to CC1(C)[C@H]2CC[C@]1([C@H]1CCCN(C(=O)c3ccon3)C1)c1nnc(-c3c(F)cccc3F)cc12 [Compound 131, [3-[5-(2,6-difluorophenyl)-11,11-dimethyl-3,4-diazatricyclo[6.2.1.02,7]undeca-2,4,6-trien-1-yl]-1-piperidyl]-isoxazol-3-yl-methanone], the IC50 falls from 200 nM to 6.2 nM (32-fold).

First: CC1(C)[C@H]2CC[C@]1([C@H]1CN(Cc3ccccc3)CCO1)c1nnc(-c3c(F)cccc3F)cc12 [Compound 61, (S)-4-benzyl-2-((5R,8R)-3-(2,6-difluorophenyl)-9,9-dimethyl-5,6,7,8-tetrahydro-5,8-methanocinnolin-8-yl)morpholine]
Second: CC1(C)[C@H]2CC[C@]1([C@@H]1CN(Cc3ccccc3)CCO1)c1nnc(-c3c(F)cccc3F)cc12 [Compound 60, (R)-4-benzyl-2-((5R,8R)-3-(2,6-difluorophenyl)-9,9-dimethyl-5,6,7,8-tetrahydro-5,8-methanocinnolin-8-yl)morpholine]
The IC50 of the first is 1.8-fold lower: 172 nM for the first, 317 nM for the second. The first is the more potent here.

Going from CC[C@@H](O[C@@]12CC[C@@H](c3cc(-c4c(F)cccc4F)nnc31)C2(C)C)C(=O)NCCCO [Compound 105, (R)-2-(((5S,8R)-3-(2,6-difluorophenyl)-9,9-dimethyl-5,6,7,8-tetrahydro-5,8-methanocinnolin-8-yl)oxy)-N-(3-hydroxypropyl)butanamide] to CC[C@@H](O[C@@]12CC[C@@H](c3cc(-c4c(F)cccc4F)nnc31)C2(C)C)C(=O)O [Compound 111, (2R)-2-[[(1R,8S)-5-(2,6-difluorophenyl)-11,11-dimethyl-3,4-diazatricyclo[6.2.1.02,7]undeca-2,4,6-trien-1-yl]oxy]butanoic acid], the IC50 falls from 33.9 nM to 14 nM (2.4-fold). The second is the more potent here.

Going from CCOC(=O)c1coc(N2CCO[C@@H]([C@@]34CC[C@@H](c5cc(-c6c(F)cccc6F)nnc53)C4(C)C)C2)n1 [Compound 127, ethyl 2-[2-[5-(2,6-difluorophenyl)-11,11-dimethyl-3,4-diazatricyclo[6.2.1.02,7]undeca-2,4,6-trien-1-yl]morpholin-4-yl]oxazole-4-carboxylate] to CNC(=O)N1CCO[C@H]([C@@]23CC[C@@H](c4cc(-c5c(F)cccc5F)nnc42)C3(C)C)C1 [Compound 69, (R)-2-((5R,8R)-3-(2,6-difluorophenyl)-9,9-dimethyl-5,6,7,8-tetrahydro-5,8-methanocinnolin-8-yl)-N-methylmorpholine-4-carboxamide], the IC50 rises from 5 nM to 37.7 nM (7.5-fold). The first is the more potent here.

First: CC1(C)[C@H]2CC[C@]1([C@@H]1CN(C(=O)C(O)CO)CCO1)c1nnc(-c3c(F)cccc3F)cc12 (stereo partly drawn) [Compound 78, 1-((R)-2-((5R,8R)-3-(2,6-difluorophenyl)-9,9-dimethyl-5,6,7,8-tetrahydro-5,8-methanocinnolin-8-yl)morpholino)-2,3-dihydroxypropan-1-one]
Second: COC(=O)N1CCO[C@@H]([C@@]23CC[C@@H](c4cc(-c5c(F)cccc5F)nnc42)C3(C)C)C1 [Compound 87, (S)-methyl 2-((5R,8R)-3-(2,6-difluorophenyl)-9,9-dimethyl-5,6,7,8-tetrahydro-5,8-methanocinnolin-8-yl)morpholine-4-carboxylate]
The IC50 of the first is 5.8-fold higher: 213 nM for the first, 36.8 nM for the second. The second is the more potent here.

First: CC1(C)[C@H]2CC[C@]1(Oc1cc[nH]c(=O)c1)c1nnc(-c3c(F)cccc3F)cc12 [Compound 34, 4-(((5S,8R)-3-(2,6-difluorophenyl)-9,9-dimethyl-5,6,7,8-tetrahydro-5,8-methanocinnolin-8-yl)oxy)pyridin-2(1H)-one]
Second: CC[C@@H](O[C@@]12CC[C@@H](c3cc(-c4c(F)cccc4F)nnc31)C2(C)C)C(=O)N(C)C [Compound 36, (R)-2-(((5S,8R)-3-(2,6-difluorophenyl)-9,9-dimethyl-5,6,7,8-tetrahydro-5,8-methanocinnolin-8-yl)oxy)-N,N-dimethylbutanamide]
The IC50 of the first is 3.7-fold higher: 202 nM for the first, 54.3 nM for the second.

Compared with CC[C@@H](O[C@@]12CC[C@@H](c3cc(-c4c(F)cccc4F)nnc31)C2(C)C)C(=O)NCC(=O)N(C)C [Compound 104, (R)-2-(((5S,8R)-3-(2,6-difluorophenyl)-9,9-dimethyl-5,6,7,8-tetrahydro-5,8-methanocinnolin-8-yl)oxy)-N-(2-(dimethylamino)-2-oxoethyl)butanamide], CC[C@@H](O[C@@]12CC[C@@H](c3cc(-c4c(F)cccc4F)nnc31)C2(C)C)C(=O)N(C)CCOC [Compound 100, (R)-2-(((5S,8R)-3-(2,6-difluorophenyl)-9,9-dimethyl-5,6,7,8-tetrahydro-5,8-methanocinnolin-8-yl)oxy)-N-(2-methoxyethyl)-N-methylbutanamide] is 1.8-fold lower in IC50: 82.9 nM for the first, 46.4 nM for the second. The second is the more potent here.

CNC(=O)N1CCC[C@H]([C@@]23CC[C@@H](c4cc(-c5c(F)cccc5F)nnc42)C3(C)C)C1 [Compound 96, (R)-3-((5R,8R)-3-(2,6-difluorophenyl)-9,9-dimethyl-5,6,7,8-tetrahydro-5,8-methanocinnolin-8-yl)-N-methylpiperidine-1-carboxamide] and CNS(=O)(=O)N1CCC[C@H]([C@@]23CC[C@@H](c4cc(-c5c(F)cccc5F)nnc42)C3(C)C)C1 [Compound 138, 3-[5-(2,6-difluorophenyl)-11,11-dimethyl-3,4-diazatricyclo[6.2.1.02,7]undeca-2,4,6-trien-1-yl]-N-methyl-piperidine-1-sulfonamide] are within 1.5-fold of each other in IC50: 13 nM for the first, 12 nM for the second.

Going from CC1(C)[C@H]2CC[C@]1([C@H]1CCCN(C(=O)NCC3(O)COC3)C1)c1nnc(-c3c(F)cccc3F)cc12 (stereo in doubt) [Compound 153, 3-[5-(2,6-difluorophenyl)-11,11-dimethyl-3,4-diazatricyclo[6.2.1.02,7]undeca-2,4,6-trien-1-yl]-N-[(3-hydroxyoxetan-3-yl)methyl]piperidine-1-carboxamide] to CC1(C)[C@H]2CC[C@]1([C@H]1CCCN(C(=O)c3cnccn3)C1)c1nnc(-c3c(F)cccc3F)cc12 [Compound 132, [3-[5-(2,6-difluorophenyl)-11,11-dimethyl-3,4-diazatricyclo[6.2.1.02,7]undeca-2,4,6-trien-1-yl]-1-piperidyl]-pyrazin-2-yl-methanone], the IC50 falls from 110 nM to 14 nM (7.9-fold).

Compared with CC1(C)[C@H]2CC[C@]1([C@H]1CCCN(S(C)(=O)=O)C1)c1nnc(-c3c(F)cccc3F)cc12 [Compound 95, (5R,8R)-3-(2,6-difluorophenyl)-9,9-dimethyl-8-((R)-1-(methylsulfonyl)piperidin-3-yl)-5,6,7,8-tetrahydro-5,8-methanocinnoline], CC(=O)N1CCN(C)C[C@@H]1[C@@]12CC[C@@H](c3cc(-c4c(F)cccc4F)nnc31)C2(C)C [Compound 182, 1-[2-[5-(2,6-difluorophenyl)-11,11-dimethyl-3,4-diazatricyclo[6.2.1.02,7]undeca-2,4,6-trien-1-yl]-4-methyl-piperazin-1-yl]ethanone] is 38-fold lower in IC50: 344 nM for the first, 9.1 nM for the second.

Compared with Cc1nnc(CO[C@@]23CC[C@@H](c4cc(-c5c(F)cccc5F)nnc42)C3(C)C)o1 [Compound 8, 2-((((5S,8R)-3-(2,6-difluorophenyl)-9,9-dimethyl-5,6,7,8-tetrahydro-5,8-methanocinnolin-8-yl)oxy)methyl)-5-methyl-1,3,4-oxadiazole], CC1(C)[C@H]2CC[C@]1([C@@H]1CN(C(N)=O)CCN1)c1nnc(-c3c(F)cccc3F)cc12 [Compound 184, 3-[5-(2,6-difluorophenyl)-11,11-dimethyl-3,4-diazatricyclo[6.2.1.02,7]undeca-2,4,6-trien-1-yl]piperazine-1-carboxamide] is 4.8-fold lower in IC50: 140 nM for the first, 29 nM for the second. The second is the more potent here.
